Data: ChEMBL document CHEMBL5523754, “Discovery of Biphenyl Derivatives to Target Hsp70-Bim Protein-Protein Interaction in Chronic Myeloid Leukemia by Scaffold Hopping Strategy” (J Med Chem, 2024)
Values after ≈ are worked out from the molar mass of the structure shown. Active and inactive are the calls of the source. No cut-off for these calls is given here.

Experiments:
Homo sapiens [1] = organism: Homo sapiens; experiment: Effect on human N-terminal 6xHis tagged HSP70 basal ATPase activity expressed in Escherichia coli BL21 (DE3) at 0 to 50 uM preincubated for 30 mins followed by ATP addition and measured after 10 mins by luciferin based luminescence analysis; details: dose 0-50 µM, time 40.0 min
[2] = Inhibition of N-terminal 6xHis tagged human Hsp70 expressed in Escherichia coli BL21 (DE3)/FAM-labeled BimBH3 peptide (unknown origin) protein protein interaction incubated for 10 mins by fluorescence polarization assay
Homo sapiens [3] = organism: Homo sapiens; experiment: Inhibition of BimBH3 peptide stimulated human N-terminal 6xHis tagged Hsp70 ATPase activity expressed in Escherichia coli BL21 (DE3) at 0 to 50 uM preincubated for 30 mins followed by ATP addition and measured after 10 mins by luciferin based luminescence analysis; details: dose 0-50 µM, time 40.0 min
K562 [4] = experiment: Inhibition of HSP70/Bim protein-protein interaction in human K562 cells assessed as reduction in AKT protein expression incubated for 12 hrs by Western blot analysis; type: cell-based
HEK293 = experiment: Induction of apoptosis in HEK293 cells assessed as apoptotic rate at 15 uM incubated for 48 hrs by Annexin V-FITC staining based flow cytometry analysis relative to control; type: toxicity, cell-based; details: human, hek293, 48 h
K562 [5] = experiment: Inhibition of HSP70/Bag3 protein-protein interaction in human K562 cells at 3 uM incubated for 12 hrs by coimmunoprecipitation analysis; type: cell-based
K562 [6] = experiment: Induction of apoptosis in human K562 cells incubated for 48 hrs by Annexin V-FITC staining based flow cytometry analysis; type: functional, cell-based; details: K562, 48 h
BaF3 = experiment: Induction of apoptosis in mouse BaF3 cells assessed as apoptotic rate at 15 uM incubated for 48 hrs by Annexin V-FITC staining based flow cytometry analysis relative to control; type: toxicity, cell-based; details: baf3, 48 h
K562 [7] = experiment: Inhibition of HSP70/Bim protein-protein interaction in human K562 cells assessed as reduction in Raf-1 protein expression incubated for 12 hrs by Western blot analysis; type: cell-based
K562 [8] = experiment: Inhibition of HSP70/Bim protein-protein interaction in human K562 cells assessed as reduction in eIF4E protein expression incubated for 12 hrs by Western blot analysis; type: cell-based
BV-173 = experiment: Induction of apoptosis in human BV-173 cells incubated for 48 hrs by Annexin V-FITC staining based flow cytometry analysis; type: functional, cell-based; details: BV-173, 48 h
[9] = Aqueous solubility of compound at pH 7 at 10 mg incubated for 24 hrs under shaking condition by HPLC method; type: physicochemical; details: aqueous medium
[10] = Induction of apoptosis in human Imatinib-resistant K562-R3 cells incubated for 48 hrs by Annexin V-FITC staining based flow cytometry analysis; type: functional; details: Imatinib-resistant K562-R3 cell
[11] = Binding affinity to N-terminal 6xHis tagged human HSP70 expressed in Escherichia coli BL21 (DE3) assessed as dissociation constant by ITC analysis
[12] = Induction of apoptosis in HEK293 cells incubated for 48 hrs by Annexin V-FITC staining based flow cytometry analysis; type: toxicity, cell-based; details: human
K562 [13] = experiment: Inhibition of HSP70/Bag3 protein-protein interaction in human K562 cells at 5 uM incubated for 12 hrs by coimmunoprecipitation analysis; type: cell-based
K562 [14] = experiment: Inhibition of HSP70/Bim protein-protein interaction in human K562 cells at 5 uM incubated for 12 hrs by coimmunoprecipitation analysis; type: cell-based
Homo sapiens [15] = organism: Homo sapiens; experiment: Inhibition of human N-terminal 6xHis tagged HSP70 basal ATPase activity expressed in Escherichia coli BL21 (DE3) at 0 to 50 uM preincubated for 30 mins followed by ATP addition and measured after 10 mins by luciferin based luminescence analysis; details: dose 0-50 µM, time 40.0 min
[16] = Induction of apoptosis in mouse BaF3 cells incubated for 48 hrs by Annexin V-FITC staining based flow cytometry analysis; type: toxicity, cell-based
Homo sapiens [17] = organism: Homo sapiens; experiment: (§1) Inhibition of BimBH3 peptide stimulated human N-terminal 6xHis tagged Hsp70 ATPase activity expressed in Escherichia coli BL21 (DE3) preincubated for 30 mins followed by ATP addition and measured after 10 mins by luciferin based luminescence analysis; details: time 40.0 min
[18] = as §1
K562 [19] = experiment: Inhibition of HSP70/Bim protein-protein interaction in human K562 cells assessed as reduction in AKT protein expression at 2 uM incubated for 12 hrs by Western blot analysis; type: cell-based
K562 [20] = experiment: Induction of apoptosis in Bim shRNA-transfected human K562 cells assessed as increase in PARP cleavage at 2 uM incubated for 24 hrs by Western blot analysis; type: functional, cell-based
K562 [21] = experiment: Induction of apoptosis in Hsp70 shRNA-transfected human K562 cells assessed as increase in PARP cleavage at 2 uM incubated for 24 hrs by Western blot analysis; type: functional, cell-based
K562 [22] = experiment: Inhibition of HSP70/Bim protein-protein interaction in human K562 cells assessed as reduction in eIF4E protein expression at 2 uM incubated for 12 hrs by Western blot analysis; type: cell-based
K562 [23] = experiment: Inhibition of HSP70/Bag3 protein-protein interaction in human K562 cells at 0.5 to 3 uM incubated for 12 hrs by coimmunoprecipitation analysis; type: cell-based; details: dose 0.5-3 µM
K562 [24] = experiment: Inhibition of HSP70/Bim protein-protein interaction in human K562 cells incubated for 12 hrs by coimmunoprecipitation analysis; type: cell-based; details: dose 0.5-3 µM
K562 [25] = experiment: Inhibition of HSP70/Bim protein-protein interaction in human K562 cells assessed as reduction in Raf-1 protein expression at 2 uM incubated for 12 hrs by Western blot analysis; type: cell-based

SMILES | Activity (Homo sapiens [1]) | IC50 [2] [nM] | inhibition (Homo sapiens [3]) | further results
O=C(Nc1ccc2ncn(CCN3CCOCC3)c2c1)NC1CCCCC1 | inactive | > 10000 | Active | –
CCN(CC)CCNC1=C(C#N)C(=O)c2cccc3c(SC4CCCCC4)ccc1c23 | inactive | 800 | Active | inhibition (K562 [4]): Active; Activity (HEK293): < 10%; inhibition (K562 [5]): inactive; EC50 (K562 [6]): 1200 nM; Activity (BaF3): < 10%; inhibition (K562 [7]): Active; inhibition (K562 [8]): Active; EC50 (BV-173): 660 nM; solubility thermodynamic at 24 h [9]: 7.19 µg/mL (≈ 16.6 µM); EC50 [10]: 370 nM; Kd [11]: 688 nM
CN(C)CCn1ccc2ccc(NC(=O)NC3CCCCC3)cc21 | inactive | > 10000 | Active | –
O=C(Nc1ccc2ccn(CCN3CCOCC3)c2c1)NC1CCCCC1 | inactive | > 10000 | Active | –
N#Cc1ccc(COC[C@H]2O[C@@H](n3c(NCc4ccc(Cl)c(Cl)c4)nc4c(N)ncnc43)[C@H](O)[C@@H]2O)cc1 | – | – | Active | EC50 at 48 h [12]: 6460 nM; inhibition (K562 [13]): inactive; EC50 (K562 [6]): 7050 nM; inhibition (K562 [14]): inactive; inhibition (Homo sapiens [15]): Active; EC50 (BV-173): 5640 nM; EC50 [10]: 8680 nM; EC50 at 48 h [16]: 7730 nM
CN(C)CCNc1cc(-c2ccc(OC34CC5CC(CC(C5)C3)C4)cc2)cc(O)c1C#N | inactive | 8800 | Active | –
O=C(Nc1ccc2ccn(CCN3CCOCC3)c2c1)C1CCCCC1 | inactive | > 10000 | Active | –
CN(C)CCn1cnc2ccc(NC(=O)C3CCCCC3)cc21 | inactive | > 10000 | Active | –
Cc1cc(Oc2ccc(-c3cc(O)c(C#N)c(NCCN4CCCCC4)c3)cc2)cc(C)c1Cl | inactive | 70 | – | inhibition (Homo sapiens [17]): Dose-Dependent Effect; IC50 [18]: 4890 nM; inhibition (K562 [19]): Active; Activity (HEK293): < 10%; Activity (K562 [20]): inactive; EC50 (K562 [6]): 880 nM; Activity (K562 [21]): inactive; Activity (BaF3): < 10%; inhibition (K562 [22]): Active; inhibition (K562 [23]): inactive; inhibition (K562 [24]): Dose-Dependent Effect; EC50 (BV-173): 430 nM; inhibition (K562 [25]): Active; solubility thermodynamic at 24 h [9]: 29.4 µg/mL (≈ 61.8 µM); EC50 [10]: 190 nM; Kd [11]: 123 nM
CN(C)CCNc1cc(-c2ccc(OC3CCCCC3)cc2)cc(F)c1C#N | inactive | 8200 | Active | –
CN(C)CCn1c(=O)oc2ccc(NC(=O)NC3CCCCC3)cc21 | inactive | > 10000 | Active | –
CN(C)CCNc1cc(-c2ccc(OC3CCCCC3)cc2)cc(CC(=O)O)c1C#N | inactive | 3600 | Active | –
CN(C)CCn1cnc2ccc(NC(=O)NC3CCCCC3)cc21 | inactive | > 10000 | Active | –
CCN(CC)CCn1cnc2ccc(NC(=O)NC3CCCCC3)cc21 | inactive | > 10000 | Active | –
Cc1cc(Oc2ccc(-c3cc(O)c(C#N)c(NCCN4CCCC4)c3)cc2)cc(C)c1Cl | inactive | 90 | Active | –
Cc1cc(-c2ccc(OC3CCCCC3)cc2)cc(NCCN(C)C)c1C#N | inactive | > 10000 | Active | –

Second part, led by results:

Activity (Homo sapiens [1]) | IC50 [2] [nM] | inhibition (Homo sapiens [3]) | SMILES | further results
inactive | 410 | Active | Cc1cc(Oc2ccc(-c3cc(O)c(C#N)c(NCCN(C)C)c3)cc2)cc(C)c1N | –
inactive | 2130 | Active | CN(C)CCNc1cc(-c2ccc(Oc3ccccc3)cc2)cc(O)c1C#N | –
inactive | 620 | Active | Cc1cc(C)cc(Oc2ccc(-c3cc(O)c(C#N)c(NCCN(C)C)c3)cc2)c1 | –
inactive | 820 | Active | Cc1cccc(Oc2ccc(-c3cc(O)c(C#N)c(NCCN(C)C)c3)cc2)c1 | –
inactive | 330 | Active | Cc1cc(Oc2ccc(-c3cc(O)c(C#N)c(NCCN(C)C)c3)cc2)cc(C)c1Cl | –
inactive | 280 | Active | CCN(CC)CCNc1cc(-c2ccc(Oc3cc(C)c(Cl)c(C)c3)cc2)cc(O)c1C#N | –
inactive | 930 | Active | CN(C)CCNc1cc(-c2ccc(OC3CCCCC3)cc2)cc(O)c1C#N | –
inactive | 880 | Active | CN(C)CCNc1cc(-c2ccc(Oc3cc(C(C)(C)C)cc(C(C)(C)C)c3)cc2)cc(O)c1C#N | –
